Test results: patent US4492693A, “Benzothienylglycyl cephalosporin derivatives” (priority 1983, dated 1985)
Converted amounts (≈) assume the structure as drawn. Like-named read-outs stand apart in the source and are kept apart here.

What was measured:
Strep. A = test: Agar Dilution MIC (Table I); type: cell-based; settings: read-out: Agar Dilution MIC
Description: (§3) MIC's for several known compounds are also presented for comparison.

Strep. PN = test: Agar Dilution MIC (Table I); type: cell-based; settings: strain PARK
Description: as §3

Strep. D = test: Agar Dilution MIC (Table I); type: cell-based; settings: read-out: Agar Dilution MIC
Procedure, shortened: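 Minimum inhibitory concentrations, in μg/ml, come from a conventional agar dilution test run in vitro.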

H. influ. = test: Agar Dilution MIC (Table I); type: cell-based; settings: read-out: Agar Dilution MIC
Description: as §3

E. coli = test: Agar Dilution MIC (Table I); type: cell-based; settings: Escherichia coli
Description: as §3

Klebsiella = test: Agar Dilution MIC (Table I); type: cell-based; settings: Klebsiella, read-out: Agar Dilution MIC
Description: as §3

H. influenzae = test: Expanded Spectrum MIC (Table II); type: cell-based; settings: Haemophilus influenzae
Procedure, shortened: (§1)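 MICs (μg/ml) were determined by standard in vitro agar dilution.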

Staph. aureus = test: Expanded Spectrum MIC (Table II); type: cell-based; settings: Staphylococcus aureus
Procedure, shortened: as §1

Bacteroides corrodens = test: Susceptibility of Anaerobic Bacteroides Isolates by the Agar-Dilution Method (Table III); type: cell-based; settings: Eikenella corrodens; strain 1874; readings 24 hrs. after incubation
Procedure, shortened: (§2)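 MICs (μg/ml) were determined by standard agar dilution against anaerobic Bacteroides isolates and read 24 h after incubation.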

Bacteroides fragilis [1] = test: as above; type: cell-based; settings: 24 h
Procedure, shortened: as §2

[2] = tested on: Bacteroides thetaiotaomicron; test: as above; type: cell-based; settings: 24 h
Procedure, shortened: as §2

Bacteroides fragilis [3] = test: Expanded anaerobic Spectrum MIC (Table IV); type: cell-based
Haemophilus influenzae = test: Expanded H. influenzae Spectrum MIC (Table IV); type: cell-based
[4] = tested on: β-lactamase, organism 265A; test: Stability to β-lactamase (Table V); type: biochemical; settings: lower numbers mean greater stability
[5] = tested on: β-lactamase, organism PS185; test: Stability to β-lactamase (Table V); type: biochemical; settings: lower numbers mean greater stability
[6] = tested on: β-lactamase, organism TEM; type: biochemical; settings: lower numbers mean greater stability
[7] = tested on: β-lactamase, organism 1082E; test: Stability to β-lactamase (Table V); type: biochemical; settings: lower numbers mean greater stability
[8] = tested on: β-lactamase, organism 1313G; test: Stability to β-lactamase (Table V); type: biochemical; settings: lower numbers mean greater stability
bacteria = test: Antibacterial activity (general statements); type: cell-based; settings: anaerobic bacteria and Haemophilus influenzae, more strains
[9] = mean over strains, read-out: MIC mean

In the case of CC1=C(C(=O)O)N2C(=O)C(NC(=O)C(N)c3csc4ccccc34)C2SC1 (stereo not drawn) [Ex. 9, 7-(3-Benzothienyl)glycylamido-3-methyl-3-cephem-4-carboxylic acid], the MIC (Strep. A) was 0.125 µg/mL (≈ 0.31 µM), the MIC (Strep. PN) was 0.5 µg/mL (≈ 1.24 µM) and the MIC (Strep. D; strain 2041) was 64 µg/mL (≈ 159 µM). For the same compound, the MIC (Strep. D; strain X66) was 128 µg/mL (≈ 317 µM), the MIC (H. influ.; strain 76) was 0.5 µg/mL (≈ 1.24 µM) and the MIC (H. influ.; strain C.L.) was 2 µg/mL (≈ 4.96 µM). For the same compound, the MIC (E. coli; strain EC14) was 32 µg/mL (≈ 79.3 µM), the MIC (E. coli; strain N10) was 128 µg/mL (≈ 317 µM) and the MIC (E. coli; strain TEM) was 32 µg/mL (≈ 79.3 µM). For the same compound, the MIC (Klebsiella; strain KAE) was 128 µg/mL (≈ 317 µM), the MIC (Klebsiella; strain X26) was 2 µg/mL (≈ 4.96 µM) and the MIC (Klebsiella; strain X68) was 128 µg/mL (≈ 317 µM). The MIC (H. influenzae; strain 76) was 1 µg/mL (≈ 2.48 µM), the MIC (H. influenzae; strain 105) was 1 µg/mL (≈ 2.48 µM) and the MIC (H. influenzae; strain 158) was 1 µg/mL (≈ 2.48 µM). The MIC (H. influenzae; strain 164) was 1 µg/mL (≈ 2.48 µM), the MIC (H. influenzae; strain 169) was 1 µg/mL (≈ 2.48 µM) and the MIC (H. influenzae; strain 171) was 1 µg/mL (≈ 2.48 µM). It also gave an MIC (H. influenzae; strain 312) of 1 µg/mL (≈ 2.48 µM), an MIC (H. influenzae; strain 1683) of 0.5 µg/mL (≈ 1.24 µM) and an MIC (H. influenzae; strain 1930) of 1 µg/mL (≈ 2.48 µM). For the same compound, the MIC (H. influenzae; strain 4842) was 1 µg/mL (≈ 2.48 µM), the MIC (H. influenzae; strain C.L.) was 2 µg/mL (≈ 4.96 µM) and the MIC (H. influenzae; strain HESS) was 1 µg/mL (≈ 2.48 µM). The MIC (H. influenzae; strain M366) was 64 µg/mL (≈ 159 µM), the MIC (H. influenzae; strain M370) was 1 µg/mL (≈ 2.48 µM) and the MIC (H. influenzae; strain M371) was 1 µg/mL (≈ 2.48 µM). It also gave an MIC (H. influenzae; strain R465) of 64 µg/mL (≈ 159 µM), an MIC (H. influenzae; strain STEL) of 64 µg/mL (≈ 159 µM) and an MIC (Staph. aureus; strain S224) of 1 µg/mL (≈ 2.48 µM). The MIC (Staph. aureus; strain S225) was 1 µg/mL (≈ 2.48 µM), the MIC (Staph. aureus; strain S226) was 2 µg/mL (≈ 4.96 µM) and the MIC (Staph. aureus; strain S227) was 1 µg/mL (≈ 2.48 µM). For the same compound, the MIC (Staph. aureus; strain S228) was 1 µg/mL (≈ 2.48 µM), the MIC (Staph. aureus; strain S229) was 2 µg/mL (≈ 4.96 µM) and the MIC (Staph. aureus; strain S230) was 1 µg/mL (≈ 2.48 µM). The MIC (Staph. aureus; strain S231) was 1 µg/mL (≈ 2.48 µM), the MIC (Staph. aureus; strain S234) was 2 µg/mL (≈ 4.96 µM) and the MIC (Staph. aureus; strain S237) was 1 µg/mL (≈ 2.48 µM). The MIC (Staph. aureus; strain S238) was 2 µg/mL (≈ 4.96 µM), the MIC (Staph. aureus; strain S239) was 2 µg/mL (≈ 4.96 µM) and the MIC (Bacteroides corrodens) was 32 µg/mL (≈ 79.3 µM). The MIC (Bacteroides fragilis [1]; strain 9, readings 24 hrs. after incubation) was 4 µg/mL (≈ 9.91 µM), the MIC (Bacteroides fragilis [1]; strain 103, readings 24 hrs. after incubation) was 32 µg/mL (≈ 79.3 µM) and the MIC (Bacteroides fragilis [1]; strain 104, readings 24 hrs. after incubation) was 4 µg/mL (≈ 9.91 µM). For the same compound, the MIC (Bacteroides fragilis [1]; strain 106, readings 24 hrs. after incubation) was 4 µg/mL (≈ 9.91 µM), the MIC (Bacteroides fragilis [1]; strain 107, readings 24 hrs. after incubation) was 8 µg/mL (≈ 19.8 µM) and the MIC (Bacteroides fragilis [1]; strain 108, readings 24 hrs. after incubation) was 4 µg/mL (≈ 9.91 µM). It also gave an MIC (Bacteroides fragilis [1]; strain 110, readings 24 hrs. after incubation) of 8 µg/mL (≈ 19.8 µM), an MIC (Bacteroides fragilis [1]; strain 111, readings 24 hrs. after incubation) of 64 µg/mL (≈ 159 µM) and an MIC (Bacteroides fragilis [1]; strain 1877, readings 24 hrs. after incubation) of 8 µg/mL (≈ 19.8 µM). The MIC ([2]; strain 1438, readings 24 hrs. after incubation) was 4 µg/mL (≈ 9.91 µM), the MIC ([2]; strain 1900A, readings 24 hrs. after incubation) was 16 µg/mL (≈ 39.7 µM) and the MIC (Bacteroides fragilis [3]; geometric mean over strains, read-out: MIC Geometric mean) was 0.7 µg/mL (≈ 1.73 µM). It also gave an MIC (Bacteroides fragilis [3]; [9]) of 1.2 µg/mL (≈ 2.97 µM), an MIC (Bacteroides fragilis [3]; strain 180-821, read-out: MIC) of 0.5 µg/mL (≈ 1.24 µM) and an MIC (Bacteroides fragilis [3]; strain 10668, read-out: MIC) of 0.5 µg/mL (≈ 1.24 µM). It also gave an MIC (Bacteroides fragilis [3]; strain 10683, read-out: MIC) of 0.5 µg/mL (≈ 1.24 µM), an MIC (Bacteroides fragilis [3]; strain 10695, read-out: MIC) of 0.5 µg/mL (≈ 1.24 µM) and an MIC (Bacteroides fragilis [3]; strain 10732, read-out: MIC) of 0.5 µg/mL (≈ 1.24 µM). For the same compound, the MIC (Bacteroides fragilis [3]; strain 10750, read-out: MIC) was 8 µg/mL (≈ 19.8 µM), the MIC (Bacteroides fragilis [3]; strain 10774, read-out: MIC) was 1 µg/mL (≈ 2.48 µM) and the MIC (Bacteroides fragilis [3]; strain 10817, read-out: MIC) was 0.5 µg/mL (≈ 1.24 µM). For the same compound, the MIC (Bacteroides fragilis [3]; strain 10837, read-out: MIC) was 0.5 µg/mL (≈ 1.24 µM), the MIC (Bacteroides fragilis [3]; strain 107266, read-out: MIC) was 0.5 µg/mL (≈ 1.24 µM) and the MIC (Bacteroides fragilis [3]; strain 107268, read-out: MIC) was 2 µg/mL (≈ 4.96 µM). It also gave an MIC (Bacteroides fragilis [3]; strain 108133, read-out: MIC) of 0.5 µg/mL (≈ 1.24 µM), an MIC (Haemophilus influenzae; geometric mean over strains, read-out: MIC Geometric Mean) of 1.1 µg/mL (≈ 2.73 µM) and an MIC (Haemophilus influenzae; [9]) of 2.1 µg/mL (≈ 5.2 µM). For the same compound, the MIC (Haemophilus influenzae; strain 101, read-out: MIC) was 1 µg/mL (≈ 2.48 µM), the MIC (Haemophilus influenzae; strain 102) was 16 µg/mL (≈ 39.7 µM) and the MIC (Haemophilus influenzae; strain 103, read-out: MIC) was 0.5 µg/mL (≈ 1.24 µM). The MIC (Haemophilus influenzae; strain 105, read-out: MIC) was 0.5 µg/mL (≈ 1.24 µM), the MIC (Haemophilus influenzae; strain 107, read-out: MIC) was 1 µg/mL (≈ 2.48 µM) and the MIC (Haemophilus influenzae; strain 108, read-out: MIC) was 2 µg/mL (≈ 4.96 µM). It also gave an MIC (Haemophilus influenzae; strain 109, read-out: MIC) of 1 µg/mL (≈ 2.48 µM), an MIC (Haemophilus influenzae; strain 110, read-out: MIC) of 0.5 µg/mL (≈ 1.24 µM) and an MIC (Haemophilus influenzae; strain 111, read-out: MIC) of 0.5 µg/mL (≈ 1.24 µM). For the same compound, the MIC (Haemophilus influenzae; strain 112, read-out: MIC) was 2 µg/mL (≈ 4.96 µM), the MIC (Haemophilus influenzae; strain 113, read-out: MIC) was 0.5 µg/mL (≈ 1.24 µM) and the MIC (Haemophilus influenzae; strain 114, read-out: MIC) was 2 µg/mL (≈ 4.96 µM). For the same compound, the “Stability to β-lactamase” value [4] was 14, the “Stability to β-lactamase” value [5] was 25 and the “Stability to β-lactamase” value [6] was 3. For the same compound, the “Stability to β-lactamase” value [7] was 25, the “Stability to β-lactamase” value [8] was 210 and the “potency compared to known antibiotics” value (bacteria) was “much more potent than those with which it was compared”.
